Reference: publication PMC8004375, “Pharmacokinetic Study of Safrole and Methyl Eugenol after Oral Administration of the Essential Oil Extracts of Asarum in Rats by GC-MS” (BioMed Research International, 2021)

Assays:
[1] = Pharmacokinetic study in rat plasma after oral administration of Asarum essential oil extracts (GC-MS); format: in vivo, Sprague–Dawley rats; details: oral Asarum extracts 20 g/kg; for MRT / Cmax / half-life / AUC(0-inf) / AUC(0-t) / Tmax / MRT last / MRT inf: male, Sprague-Dawley, in vivo; for MRT: 0−t or 0−∞ not specified, read-out: mean residence time; for Cmax: as stated in text without unit; for half-life: elimination half-life; for half-life / AUC(0-inf) / AUC(0-t) / Tmax / MRT last / MRT inf: n = 6, mean ± SD; for MRT last: read-out: MRT(0 − t); for MRT inf: read-out: MRT(0 − ∞)
Procedure: The GC–MS system (Shimadzu GC-MS QP-2010 Ultrasystem) was coupled with an AOC-20i autosampler. The column used was a DB-17 capillary column (30 m × 0.25 mm × 0.25 μm film thickness). 99.99% high purity Helium was used as the carrier gas with a flow rate of 1.3 mL/min. The column temperature was programmed as follows: initial temperature 90°C, 20°C/min to 106°C, 30°C/min to 136°C, 40°C/min to 210°C, and finally 5.5°C/min to 214°C. The injection volume was 1 μL, and the injection temperature was 250°C.
The MS data were acquired in the electron-impact mode, and the SIM mode was used for quantification. The three characteristic ions of safrole were 162.0, 131.0, and 104.0 and that of methyl eugenols were 178.0, 163.0, and 147.0 (ions in bold fonts were used for the quantification). The transfer line temperature was set at 250°C, and the ionization source temperature was set at 230°C. The total run time was 4.5 min with a solvent delay of 3 min.
100 μL plasma sample was incorporated with 10 μL n-hexane and 10 μL of IS (5 μg/mL) and vortexed for 30 seconds. 130 μL n-hexane was then added to the sample and vortex-mixed for 5 min. The samples were centrifuged (12,000 × g, 10 min, 4°C), and […] was injected for GC-MS analysis.
All animal protocols were approved by the Laboratory Animal Ethics Committee of Tianjin University Traditional Chinese Medicine (TCM-LAEC20190059). Six male Sprague–Dawley rats (body weight 240 ± 10 g) were fasted for 12 h prior to the study, with free access to water. The Asarum extracts were administered to rats orally at a dose of 20 g/kg. 0.5% CMC-Na aqueous solution was used to dissolve the Asarum extracts to a concentration of 2 g/mL suspension and stored at 4°C. Approximately 220 μL blood samples were collected from the suborbital vein into centrifuge tubes at 0, 0.08, 0.17, 0.5, 1, 2, 4, 6, 8, 10, 12, 24, 36, 48, and 60 h postadministration in rats. The plasma was separated by centrifugation at 4000 × g for 10 min immediately and frozen at -80°C until the time of analysis. The main program pharmacokinetic parameters were processed by Drug and Statistics 3.0 (Medical College of Wannan, China).

[2] = Stability of analytes in rat plasma (QC samples); format: in vitro ADME; details: for Stability in plasma samples: all conditions studied: room temperature 4 h, three freeze-thaw cycles, auto-sampler 12 h, -80°C 7 days; for Measured concentration, three freeze-thaw cycles / Measured concentration, -80°C for 7 days / Measured concentration, auto-sampler for 12 h / Measured concentration, room temperature for 4 h: rat plasma, n = 6; for Measured concentration, three freeze-thaw cycles: freeze -20°C
Procedure: The stability was evaluated under different condition with variable time and temperature including long-term stability (storing the QC samples at -80°C for 7 days), short-term stability (storing the QC samples at room temperature for 4 h), freeze/thaw stability (three freeze (-20°C) thaw cycles), and auto-sampler stability (incubating the spiked samples for 12 h in auto-sampler).

[3] = International Agency for Research on Cancer classification; cited from earlier work
[4] = high QC (spiked 12000 ng/mL safrole, 8000 ng/mL methyl eugenol)
[5] = low QC (spiked 120 ng/mL safrole, 80 ng/mL methyl eugenol)
[6] = medium QC (spiked 1200 ng/mL safrole, 800 ng/mL methyl eugenol)

Row | Compound | MRT [1] [h] | Cmax [1] [ng/mL] | half-life [1] [h] | AUC(0-inf) [1] [ng·h/mL] | AUC(0-t) [1] [ng·h/mL] | Tmax [1] [h] | MRT last [1] [h] | MRT inf [1] [h] | Stability in plasma samples [2] | Measured concentration, three freeze-thaw cycles [2, 4] [ng/mL] | Measured concentration, -80°C for 7 days [2, 4] [ng/mL] | Measured concentration, auto-sampler for 12 h [2, 4] [ng/mL] | Measured concentration, room temperature for 4 h [2, 4] [ng/mL] | Measured concentration, three freeze-thaw cycles [2, 5] [ng/mL] | Measured concentration, -80°C for 7 days [2, 5] [ng/mL] | Measured concentration, auto-sampler for 12 h [2, 5] [ng/mL] | Measured concentration, room temperature for 4 h [2, 5] [ng/mL] | Measured concentration, three freeze-thaw cycles [2, 6] [ng/mL] | Measured concentration, -80°C for 7 days [2, 6] [ng/mL] | Measured concentration, auto-sampler for 12 h [2, 6] [ng/mL] | also measured
1 | C=CCc1ccc(OC)c(OC)c1 [Methyl eugenol] | 10.6 ± 0.63 | 823 ± 124 | 3.67 ± 1.6 | 15300 ± 2790 | 15200 ± 2760 | 6.67 ± 2.07 | 10.6 ± 0.63 | 10.6 ± 0.63 | stable | 7287.0 ± 522.7 | 7367.9 ± 638.7 | 7100.8 ± 230.4 | 7418.6 ± 62.9 | 78.5 ± 6.5 | 81.0 ± 5.2 | 73.9 ± 6.1 | 89.6 ± 8.8 | 708.5 ± 16.2 | 749.8 ± 40.7 | 727.7 ± 6.0 | completely metabolised after [1]: 36 h; Measured concentration, room temperature for 4 h [2, 6]: 751.7 ± 7.8 ng/mL; IARC carcinogen group [3]: group 2B carcinogen
2 | C=CCc1ccc2c(c1)OCO2 [Safrole] | 18.4 ± 0.64 | 1980 ± 267 | 2.44 ± 2.72 | 53000 ± 5260 | 53000 ± 5290 | 13 ± 1.1 | 18.4 ± 0.64 | 18.4 ± 0.63 | stable | 12526.3 ± 331.5 | 12741.7 ± 103.1 | 12065.2 ± 210.7 | 12751.7 ± 38.6 | 137.0 ± 10.6 | 135.1 ± 11.0 | 136.3 ± 11.8 | 132.5 ± 12.4 | 1319.7 ± 21.2 | 1348.1 ± 41.4 | 1271.1 ± 3.3 | detectable in plasma samples after [1]: 48 h; Measured concentration, room temperature for 4 h [2, 6]: 1306.7 ± 15.7 ng/mL; IARC carcinogen group [3]: group 2B carcinogen
